Results from the NIST ThermoML archive (doi:10.1021/je4009415).

Key:
[1] = Liquid; for mass density: Vibrating tube method; for vapor or sublimation pressure: Ebulliometric method (Recirculating still)
[2] = refractive index (Na D-line) (dimensionless); conditions: 298.15 K; 101.33 kPa; Liquid; Standard Abbe refractometry
[3] = xn = mol fraction of the nth substance listed; conditions: Liquid, Vibrating tube method

CCC(=O)OC [methyl propanoate]
[1]
Conditions | mass density [kg/m3] | vapor or sublimation pressure [kPa]
288.15 K | 921.21 | –
298.15 K | 909.1 | –
308.15 K | 896.91 | –
318.15 K | 884.71 | –
328.15 K | 872.22 | –
335.15 K | – | 55
336.38 K | – | 57.5
337.53 K | – | 60
338.61 K | – | 62.5
339.76 K | – | 65
340.79 K | – | 67.5
341.81 K | – | 70
342.79 K | – | 72.5
343.75 K | – | 75
344.68 K | – | 77.5
345.59 K | – | 80
346.49 K | – | 82.5
347.35 K | – | 85
348.2 K | – | 87.5
349.03 K | – | 90
349.83 K | – | 92.5
350.62 K | – | 95
352.34 K | – | 100
352.72 K | – | 101.32
352.75 K | – | 101.32
353.81 K | – | 105
355.23 K | – | 110
356.53 K | – | 115
357.87 K | – | 120
359.16 K | – | 125
360.42 K | – | 130
361.65 K | – | 135
362.8 K | – | 140
363.97 K | – | 145
365.05 K | – | 150
366.15 K | – | 155
367.22 K | – | 160
368.27 K | – | 165
369.26 K | – | 170
370.25 K | – | 175
371.22 K | – | 180
372.2 K | – | 185
373.12 K | – | 190
374.01 K | – | 195
374.9 K | – | 200
375.77 K | – | 205
376.63 K | – | 210
377.52 K | – | 215
378.3 K | – | 220
379.14 K | – | 225
379.96 K | – | 230
380.72 K | – | 235
381.51 K | – | 240
382.25 K | – | 245
383.03 K | – | 250
383.74 K | – | 255
384.47 K | – | 260
385.21 K | – | 265
385.87 K | – | 270
386.61 K | – | 275
387.28 K | – | 280

Conditions | refractive index
[2] | 1.3743

CCC(=O)OC [methyl propanoate] + CCCCC
mass density [kg/m3], [3], 101 kPa
Conditions | 288.15 K | 298.15 K
x1 = 0.0597 | 644.23 | –
x1 = 0.0641 | – | 635.16
x1 = 0.0925 | 651.9 | –
x1 = 0.0938 | – | 642.1
x1 = 0.1482 | – | 654.98
x1 = 0.1507 | 665.97 | –
x1 = 0.204 | 679.21 | –
x1 = 0.2099 | – | 670.19
x1 = 0.2574 | – | 682.36
x1 = 0.2614 | 693.95 | –
x1 = 0.3127 | 707.38 | –
x1 = 0.3135 | – | 696.99
x1 = 0.3382 | 714.27 | –
x1 = 0.3389 | – | 703.72
x1 = 0.3927 | 729.16 | –
x1 = 0.3942 | – | 718.75
x1 = 0.442 | 743.09 | –
x1 = 0.4459 | – | 733.12
x1 = 0.4985 | 759.2 | –
x1 = 0.4999 | – | 748.56
x1 = 0.5461 | 773.25 | –
x1 = 0.5478 | – | 762.56
x1 = 0.5921 | – | 775.9
x1 = 0.5926 | 787.12 | –
x1 = 0.6407 | 801.96 | –
x1 = 0.6434 | – | 791.33
x1 = 0.6898 | – | 805.83
x1 = 0.69 | 817.19 | –
x1 = 0.7559 | – | 826.88
x1 = 0.7581 | 839.01 | –
x1 = 0.8051 | – | 842.74
x1 = 0.8072 | 855.11 | –
x1 = 0.8487 | 868.74 | –
x1 = 0.8499 | – | 857.54
x1 = 0.8891 | 882.39 | –
x1 = 0.8915 | – | 871.51
x1 = 0.9538 | 904.73 | –
x1 = 0.9601 | – | 894.98
x1 = 1 | 921.21 | 909.1

CCCCCCCCC [nonane]
[1]
Conditions | mass density [kg/m3] | vapor or sublimation pressure [kPa]
288.15 K | 721.65 | –
298.15 K | 713.85 | –
308.15 K | 705.96 | –
318.15 K | 698.06 | –
328.15 K | 690.17 | –
423.9 K | – | 101.32

Conditions | refractive index
[2] | 1.4032

CCCCCCCCC [nonane] + CCC(=O)OC
[3], x2 = 0
Conditions | mass density [kg/m3]
288.15 K | 721.65
298.15 K | 713.85
308.15 K | 705.96
318.15 K | 698.06
328.15 K | 690.17

CCCCCCCCC [nonane] + CCOC(=O)CC
[3], x2 = 0
Conditions | mass density [kg/m3]
288.15 K | 721.65
298.15 K | 713.85
308.15 K | 705.96
318.15 K | 698.06
328.15 K | 690.17

CCCCC [pentane]
[1]
Conditions | mass density [kg/m3] | vapor or sublimation pressure [kPa]
288.15 K | 630.78 | –
298.15 K | 620.9 | –
298.91 K | – | 70
299.82 K | – | 72.5
300.77 K | – | 75
301.65 K | – | 77.5
302.52 K | – | 80
303.38 K | – | 82.5
304.22 K | – | 85
305.02 K | – | 87.5
305.81 K | – | 90
306.62 K | – | 92.5
307.37 K | – | 95
308.12 K | – | 97.5
308.87 K | – | 100
309.23 K | – | 101.32
310.28 K | – | 105
311.64 K | – | 110
312.97 K | – | 115
314.26 K | – | 120
315.5 K | – | 125
316.7 K | – | 130
317.87 K | – | 135
319.01 K | – | 140
320.11 K | – | 145
321.17 K | – | 150
322.24 K | – | 155
323.25 K | – | 160
324.26 K | – | 165
325.24 K | – | 170
326.18 K | – | 175
327.12 K | – | 180
328.03 K | – | 185
328.93 K | – | 190
329.8 K | – | 195
330.66 K | – | 200
331.51 K | – | 205
332.34 K | – | 210
333.15 K | – | 215
333.95 K | – | 220
334.73 K | – | 225
335.5 K | – | 230
336.28 K | – | 235
337.02 K | – | 240
337.75 K | – | 245
338.47 K | – | 250
339.19 K | – | 255
339.89 K | – | 260
340.59 K | – | 265
341.27 K | – | 270
341.94 K | – | 275
342.6 K | – | 280

Conditions | mass density [kg/m3]
[1], 298.15 K, 101 kPa | 620.91

Conditions | refractive index
[2] | 1.3547

CCCCC [pentane] + CCC(=O)OC
[3], 101 kPa, x2 = 0
Conditions | mass density [kg/m3]
288.15 K | 630.78
298.15 K | 620.91

CCCCC [pentane] + CCOC(=O)CC
[3], x2 = 0
Conditions | mass density [kg/m3]
288.15 K | 630.78
298.15 K | 620.9
